Measurements as given in patent US20240041042A1, “1-(PYRIDYL)-5-AZINYLPYRAZOLE DERIVATIVES, AND THEIR USE FOR CONTROL OF UNDESIRED PLANT GROWTH” (Bayer Aktiengesellschaft, priority 2020, published 2024).
Like-named read-outs stand apart in the source and are kept apart here.

Legend:
Format in all cases: in vivo
[1] = tested on: Echinochloa crus-galli (ECHCG); assay: Pre-emergence herbicidal action against ECHCG
Method in brief: (§1)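 Seeds sown in pots and covered with soil; WP or EC formulations sprayed onto the soil surface at 600 l/ha water with 0.5% additive, at 320 g/ha or lower. Greenhouse growth for about 3 weeks, then visual scoring as % effect against untreated controls (100% = plants dead).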

[2] = tested on: Verconica persica (VERPE); assay: Pre-emergence herbicidal action against VERPE
Method in brief: as §1

[3] = tested on: Polygonum convolvulus (POLCO); assay: Post-emergence herbicidal action against POLCO
Method in brief: (§2)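 Doses of 320 g/ha or lower, suffixes a, b and c marking different dosages, were applied post-emergence at the one-leaf stage in 600 l/ha water with 0.5% additive. Damage was assessed visually after about 3 weeks in the greenhouse.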

[4] = tested on: Echinochloa crus-galli (ECHCG); assay: Post-emergence herbicidal action against ECHCG
Method in brief: as §2

[5] = tested on: Amaranthus retroflexus (AMARE); assay: Pre-emergence herbicidal action against AMARE; details: visual scoring after about 3 weeks vs untreated controls
Method in brief: as §1

Avena fatua (AVEFA) [6] = assay: Pre-emergence herbicidal action against AVEFA; details: 320 g/ha, visual scoring after about 3 weeks vs untreated controls
Method in brief: as §1

[7] = tested on: Pharbitis purpurea (PHBPU); assay: Pre-emergence herbicidal action against PHBPU
Method in brief: as §1

[8] = tested on: Alopecurus myosuroides (ALOMY); assay: Pre-emergence herbicidal action against ALOMY; details: scored visually after about 3 weeks, 100% = plants have died
Method in brief: as §1

[9] = tested on: Abutilon theophrasti (ABUTH); assay: Post-emergence herbicidal action against ABUTH; details: visual rating about 3 weeks after treatment vs untreated controls (100% = plants have died, 0% = like control plants)
Method in brief: as §2

[10] = tested on: Verconica persica (VERPE); assay: Post-emergence herbicidal action against VERPE
Method in brief: as §2

Setaria viridis (SETVI) [11] = assay: Pre-emergence herbicidal action against SETVI
Method in brief: as §1

Avena fatua (AVEFA) [12] = assay: Post-emergence herbicidal action against AVEFA; details: visual rating about 3 weeks after treatment
Method in brief: as §2

Oryza sativa (ORYSA) = details: crop plant compatibility
Method in brief: (§3)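 Foliar application at the one-leaf stage: WP/EC formulation, 0.5% additive, 600 l/ha water. Greenhouse-grown in sandy loam. Endpoint is visual % injury relative to untreated controls at about 3 weeks.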

[13] = tested on: Triticum aestivum (TRZAS); details: crop plant compatibility, effect vs untreated controls
Method in brief: as §3

Zea mays (ZEAMX) = details: for Post-emergence action against ZEAMX in %: crop plant compatibility, 80 g/ha, effect vs untreated controls; for Post-emergence action against ZEAMX in % (crop plant compatibility): 20 g/ha, effect in comparison to untreated controls
Method in brief: as §3

Viola tricolor (VIOTR) = assay: Pre-emergence herbicidal action against VIOTR
Method in brief: as §1

[14] = tested on: Polygonum convolvulus (POLCO); assay: Pre-emergence herbicidal action against POLCO
Method in brief: as §1

Lolium rigidum (LOLRI) [15] = assay: Post-emergence herbicidal action against LOLRI; details: dosage 80 g/ha
Method in brief: as §2

Setaria viridis (SETVI) [16] = assay: Post-emergence herbicidal action against SETVI
Method in brief: as §2

[17] = tested on: Alopecurus myosuroides (ALOMY); assay: Post-emergence herbicidal action against ALOMY; details: 80 g/ha, visual rating about 3 weeks after treatment vs untreated controls (100% = plants have died, 0% = like control plants)
Method in brief: as §2

[18] = tested on: Matricaria inodora (MATIN); assay: Post-emergence herbicidal action against MATIN; details: dosage 80 g/ha
Method in brief: as §2

[19] = tested on: Amaranthus retroflexus (AMARE); assay: Post-emergence herbicidal action against AMARE
Method in brief: as §2

Lolium rigidum (LOLRI) [20] = assay: Pre-emergence herbicidal action against LOLRI
Method in brief: as §1

[21] = tested on: Matricaria inodora (MATIN); assay: Pre-emergence herbicidal action against MATIN
Method in brief: as §1

[22] = tested on: Pharbitis purpurea (PHBPU); assay: Post-emergence herbicidal action against PHBPU
Method in brief: as §2

[23] = 80 g/ha, effect in comparison to untreated controls
[24] = 80 g/ha, visual rating about 3 weeks after treatment vs untreated controls (100% = plants have died, 0% = like control plants)
[25] = 20 g/ha, effect vs untreated controls

Row | Post-emergence action against ORYSA in % (Oryza sativa (ORYSA); [23]) | Post-emergence action against TRZAS in % ([13]; 80 g/ha) | Post-emergence action against ZEAMX in % (Zea mays (ZEAMX)) | Compound | Pre-emergence action against ECHCG in % ([1]; dosage 320 g/ha) | Pre-emergence action against VERPE in % ([2]; dosage 80 g/ha) | Pre-emergence action against VERPE in % ([2]; dosage 320 g/ha) | Post-emergence action against ECHCG in % ([4]; dosage 80 g/ha) | Post-emergence action against ECHCG in % ([4]; dosage 320 g/ha) | Pre-emergence action against AMARE in % ([5]; 320 g/ha) | Pre-emergence action against AVEFA in % (Avena fatua (AVEFA) [6]) | Pre-emergence action against PHBPU in % ([7]; dosage 320 g/ha) | Pre-emergence action against ALOMY ([8]; 320 g/ha) | Post-emergence action against VERPE in % ([10]; 320 g/ha, VERPE) | Pre-emergence action against SETVI in % (Setaria viridis (SETVI) [11]; dosage 320 g/ha) | Pre-emergence action against VIOTR in % (Viola tricolor (VIOTR); 320 g/ha, Viola tricolor) | Pre-emergence action against VIOTR in % (Viola tricolor (VIOTR); dosage 80 g/ha) | Pre-emergence action against POLCO in % ([14]; dosage 320 g/ha) | Pre-emergence action against ECHCG in % ([1]; dosage 80 g/ha) | Post-emergence action against POLCO in % ([3]; dosage 80 g/ha) | Post-emergence action against VERPE in % ([10]; dosage 80 g/ha) | further results
1 | 10% | 10% | 20% | O=C(O)COc1nn(-c2ncccc2C(F)(F)F)c(-c2cncc(F)c2)c1I [Example I-186] | 80% | 90% | 90% | 80% | 90% | 90% | 80% | 90% | 90% | 80% | 80% | 90% | 80% | 80% | – | – | – | Post-emergence action against POLCO in % ([3]; dosage 320 g/ha): 80%; Post-emergence action against ABUTH in % ([9]; 320 g/ha): 80%; Post-emergence action against AVEFA in % (Avena fatua (AVEFA) [12]; 320 g/ha): 80%; Post-emergence action against ORYSA in % (Oryza sativa (ORYSA); 320 g/ha, effect in comparison to untreated controls): 20%
2 | 0% | – | 20% | COC(=O)CCOC(=O)COc1nn(-c2ccccn2)c(-c2cncc(F)c2)c1Cl [Example I-75] | 100% | – | 90% | 90% | – | 90% | 80% | 90% | 90% | – | 100% | 100% | – | 90% | 80% | 90% | 80% | Post-emergence action against LOLRI in % (Lolium rigidum (LOLRI) [15]): 90%; Post-emergence action against SETVI in % (Setaria viridis (SETVI) [16]; dosage 80 g/ha): 80%; Post-emergence action against ALOMY in % [17]: 90%; Post-emergence action against MATIN in % [18]: 90%; Pre-emergence action against AMARE in % ([5]; 80 g/ha): 80%; Post-emergence action against AMARE in % [19, 24]: 80%; Pre-emergence action against PHBPU in % ([7]; dosage 80 g/ha): 90%; Pre-emergence action against LOLRI in % (Lolium rigidum (LOLRI) [20]; dosage 80 g/ha): 80%; Pre-emergence action against LOLRI in % (Lolium rigidum (LOLRI) [20]; dosage 320 g/ha): 100%; Pre-emergence action against ALOMY ([8]; 80 g/ha): 80%; Post-emergence action against ABUTH in % ([9]; 80 g/ha): 80%; Pre-emergence action against MATIN in % ([21]; dosage 80 g/ha): 90%; Pre-emergence action against MATIN in % ([21]; dosage 320 g/ha): 90%; Post-emergence action against AVEFA in % (Avena fatua (AVEFA) [12]; 80 g/ha): 80%; Post-emergence action against ORYSA in % (Oryza sativa (ORYSA); [25]): 0%; Post-emergence action against TRZAS in % ([13]; 20 g/ha): 20%; Post-emergence action against ZEAMX in % (crop plant compatibility) (Zea mays (ZEAMX)): 10%; Post-emergence action against PHBPU in % ([22]; dosage 80 g/ha): 90%
3 | – | – | 10% | CS(=O)(=O)NC(=O)COc1nn(-c2ncccc2F)c(-c2ccc(F)nc2)c1Br [Example I-44] | 100% | – | 80% | – | – | 90% | 90% | – | 100% | – | 100% | 100% | 100% | 90% | 80% | 90% | 80% | Post-emergence action against ALOMY in % [17]: 80%; Pre-emergence action against AMARE in % ([5]; 80 g/ha): 80%; Post-emergence action against AMARE in % [19, 24]: 80%; Pre-emergence action against LOLRI in % (Lolium rigidum (LOLRI) [20]; dosage 80 g/ha): 80%; Pre-emergence action against LOLRI in % (Lolium rigidum (LOLRI) [20]; dosage 320 g/ha): 100%; Pre-emergence action against ALOMY ([8]; 80 g/ha): 100%; Pre-emergence action against MATIN in % ([21]; dosage 320 g/ha): 90%; Pre-emergence action against SETVI in % (Setaria viridis (SETVI) [11]; dosage 80 g/ha): 90%; Post-emergence action against AVEFA in % (Avena fatua (AVEFA) [12]; 80 g/ha): 90%; Post-emergence action against ORYSA in % (Oryza sativa (ORYSA); [25]): 20%; Post-emergence action against TRZAS in % ([13]; 20 g/ha): 20%; Post-emergence action against ZEAMX in % (crop plant compatibility) (Zea mays (ZEAMX)): 0%; Pre-emergence action against POLCO in % ([14]; dosage 80 g/ha): 90%
4 | 0% | 10% | – | O=C(COc1nn(-c2ncccc2C(F)(F)F)c(-c2cncc(F)c2)c1Br)OCC1CCOC1 (racemic) [Example I-162] | 80% | 90% | 90% | – | 80% | 90% | – | 90% | – | 90% | – | 100% | 80% | 100% | – | – | 80% | Post-emergence action against SETVI in % (Setaria viridis (SETVI) [16]; dosage 320 g/ha): 80%; Post-emergence action against AMARE in % ([19]; 320 g/ha, visual rating about 3 weeks after treatment): 80%; Post-emergence action against PHBPU in % ([22]; dosage 320 g/ha): 90%
